In patent US8834938B2, “Use of arsenic for cancer therapy protection” (Board of Regents of the University of Texas System, priority 2011, dated 2014):
Read-outs that look alike come from different tables or passages of the source.

Key:
[1] = mouse, in vivo
[2] = tested on: human adult foreskin keratinocytes; settings: cited from earlier work
[3] = tested on: small intestine and bone marrow cells; settings: mouse, in vivo
[4] = tested on: small intestine and bone marrow cells; settings: mouse, in vivo; remark: listed apart in the source
p53 [5] = experiment: C57BL/6 WT vs p53 R172P knock-in mice, protection by arsenic; type: in vivo; settings: in contrast with wild type littermates
p53 [6] = type: cell-based
[7] = parameters: species or system mice; settings: mouse, in vivo
p53 [8] = type: cell-based, human
[9] = mouse, in vivo; remark: listed apart in the source
[10] = tested on: Human lung carcinoma cells A549; type: in vivo, mice; settings: mouse, in vivo
p53 [11] = experiment: p53 response to irradiation in peripheral blood lymphocytes after arsenic removal; type: in vivo, Mice
Experimental: We next used mice to examine arsenic-mediated modulation of p53 activity in vivo. To this end, we used peripheral blood lymphocytes to monitor the p53 response to irradiation. Mice were fed with water containing arsenic for 3 days. Whole blood was collected from the animals 1, 3, 5, 7, 9, or 11 days after arsenic removal. Lymphocytes were isolated by using the Ficoll method. The cells were cultured for 24 h, then irradiated at a dose of 2 Gy and harvested 3 hours post-treatment. Western analysis was performed. Consistent with the results from cell-based studies, p53 activation by radiation recovered, albeit with a slightly slower kinetics, after arsenic was removed. Radiation-induced p53 accumulation and p21 expression were suppressed at 0 and 1 day […], partially recovered at day 7 and completely back to the untreated level at day 9.

[12] = parameters: species or system mice; settings: mouse, in vivo; remark: listed apart in the source
Heart = settings: mouse, in vivo
[13] = mouse, in vivo; remark: listed apart in the source
[14] = mouse, in vivo; remark: listed apart in the source
Lung = settings: mouse, in vivo
[15] = tested on: Human colon carcinoma cells, SW-480; type: in vivo, mice; settings: mouse, in vivo
[16] = tested on: Human breast carcinoma cells, MDA-MB-231; type: in vivo, mice; settings: mouse, in vivo
[17] = after arsenic removal, 3 days arsenic water

## sodium arsenite
[1]
  5FU-induced body weight loss with arsenic pretreatment: almost completely prevented
[2]
  Concentration resulting in induced proliferation with enhanced NF-κB and AP-1 activity: ≤ 5 µM
  Concentration with statistically significant decrease of cell viability: ≥ 10 µM
[3]
  5FU damage to the small intestine with arsenic pretreatment: significantly ameliorated
  5FU-induced decrease of bone marrow cellularity with arsenic pretreatment: considerably alleviated
[4]
  Damage to small intestine and bone marrow cells with arsenic pretreatment: significantly inhibited
p53 [5]
  Protection against toxicity in p53 mutant mice: little protection
p53 [6]
  Effect on Hdm2 and p53 distribution: upregulation of Hdm2 and accumulation of p53 in the cytoplasm
  p53 response to genotoxic stress: impaired p53 activation and apoptosis
[7]
  Duration of pretreatment adequate for optimal protection: 3 days
  Protection with 1 and 2 days pretreatment: less than 3-day pretreatment
  Protection with pretreatments longer than 3-day: no further increase of benefits
p53 [8]
  Time after arsenic removal until p53 activation almost completely recovered: 7 days
  Time in arsenic-free media until radiation-induced p53 activation detectable: 5 days
[9]
  Body weight change: little loss of body weight
  Therapy-induced body weight loss with arsenic pretreatment: effectively prevented
[10]
  Effect of arsenic pretreatment on 5FU-induced tumor suppression: little effect
  Effect of arsenic pretreatment on irradiation-induced tumor suppression: little effect
  Effect on growth of the implant tumors: did not have any detectable effect
p53 [11]; 0 and 1 day, lymphocytes irradiated 2 Gy ex vivo
  Radiation-induced p53 accumulation and p21 expression: suppressed
p53 [11]; [17]
  Day of complete return to untreated level of p53 accumulation and p21 expression: 9 days
  Day of partial recovery of radiation-induced p53 accumulation and p21 expression: 7 days
[12]
  p53-dependent tissue damages induced by 5FU treatment: significantly blunted
Heart
  Grade of Damage, Heart: Zero
[13]
  Dose showing very clear toxicity by itself: > 3500 μg/kg body weight
[14]
  5FU-induced body weight loss with arsenic pretreatment: almost completely prevented
  Body weight change: little loss of body weight
Lung
  Grade of Damage, Lung: Zero
[15]
  Effect of arsenic pretreatment on 5FU-induced tumor suppression: little effect
  Effect on growth of the implanted tumors: did not have any detectable effect
[16]
  Effect of arsenic pretreatment on 5FU-induced tumor suppression: little effect
